Assay results as given in patent publication US4152425A, “Glucose containing infusion solution” (THERA Gesellschaft fur Patentverwertung mbH, priority 1976, dated 1979).
Where no end group is shown, it is not given here.

Key:
[1] = Decomposition of the kinins within the organism; conditions: in vivo
Description: This is unexpected and surprising because the phenothiazines were known heretofore only as substances having an anti-depressive effect. This fact could cause one to conclude, however, that they could affect certain oligopeptides which influence the metabolism and would indirectly, i.e., by inhibiting the decomposition of the kinins, improve the glucose assimilation of the tissue.

spermatozoa = conditions: cited from earlier work
resting forearm = assay: Resting forearm test, 10 milliliter injection into the artery of the arm; format: in vivo, human; conditions: fraction of 1μ gram in 10 milliliter of 10% glucose solution injected into the artery of the arm, versus kinin-free solution
Description: This illustrates the improved glucose absorption into the tissue of the arm and the muscular system of the hand when the solution of the present invention is employed. Since the effect of this decrease in the glucose level of the blood by the kinin admixture occurs so quickly, it may be assumed that this is caused not by an intensification of the decomposition of the glucose or the metabolism within the cell but by a more rapid penetration of the muscular cell.

Compound	decomposition of the kinins within the organism [1]	mobility of the spermatozoa (spermatozoa)	glucose content in the blood flowing through the vein of the arm (resting forearm)
CN(C)CCCN1c2ccccc2Sc2ccc(Cl)cc21 [2-chloro-10-(3-dimethylamino-propyl)-phenothiazine]	inhibited significantly		
RPPGFSPFR [Brady kinin, (NH2) arginine - proline - proline - glycine - phenylalanine - serine - proline - phenylalanine - arginine (COOH)]		further the mobility of the spermatozoa	pronounced decrease
kallidin: decapeptide kinin differing from Brady kinin only by a lysine residue at the amino end (KRPPGFSPFR; Lysyl-bradykinin; UniProt P01042 380-389, looked up)		further the mobility of the spermatozoa	
